Test results: patent publication US9101638B2, “Boronic acid derivatives and therapeutic uses thereof” (Rempex Pharmaceuticals, Inc., priority 2013, dated 2015)

Columns and labels:
PAM1032/KPC-2 = experiment: Biapenem potentiation in PAM1032/KPC-2 (MexAB-OprM overexpressed); format: cell-based, Pseudomonas aeruginosa
Protocol: (§1) Efflux of BLIs from Pseudomonas aeruginosa by the MexAB-OprM efflux pump was also evaluated. […] Due to expression of KPC-2 both strains became resistant to biapenem. […] Potency of BLIs to potentiate biapenem in these strains was determined. […] The ratio of MPC64 values for each BLI in PAM1032/KPC-2 (efflux proficient) and PAM1154/KPC-2 (efflux deficient) was determined to generate the Efflux Index (EI).

KP1009 (CTX-M-15) = experiment: Potentiation of tigemonam, strain KP1009; conditions: minimum BLI concentration inhibiting growth with 4 μg/mL tigemonam
EC1010 (CMY-6) = format: cell-based
SHV-12 = SHV-12 (Klebsiella pneumoniae, UniProt P0AD64, E235K/G234S/L31Q); experiment: Inhibition of nitrocefin cleavage by purified SHV-12; format: biochemical; conditions: nitrocefin reporter substrate, purified enzyme; read-out: Ki (SHV-12, NCF)
How it was run: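 Readout: nitrocefin hydrolysis, A490 recorded every 10 sec over 10 min. Enzyme and inhibitor (varied concentrations) preincubated 10 min, RT, in reaction buffer before substrate addition.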

ECL1002 = experiment: Potentiation of aztreonam, strain ECL1002; format: cell-based; conditions: minimum BLI concentration inhibiting growth with 4 μg/mL aztreonam
CMY-2 = CMY-2 (Klebsiella pneumoniae, UniProt Q48434); experiment: Inhibition of nitrocefin cleavage by purified CMY-2; format: biochemical; conditions: nitrocefin reporter substrate, purified enzyme; read-out: Ki (CMY-2, NCF)
Protocol: (§2) Purified enzymes were mixed with various concentrations of inhibitors in reaction buffer and incubated for 10 min at room temperature. Nitrocefin was added and substrate cleavage profiles were recorded at 490 nm every 10 sec for 10 min.

KP1004 (K-2) = experiment: Potentiation of aztreonam, strain KP1004; format: cell-based; conditions: minimum BLI concentration inhibiting growth with 4 μg/mL aztreonam
ec308 (SHV-5) [1] = experiment: Potentiation of aztreonam, strain ec308; format: cell-based; conditions: minimum BLI concentration inhibiting growth with 4 μg/mL aztreonam
ec302 (TEM-10) [2] = experiment: Potentiation of aztreonam, strain ec302; format: cell-based
KP1005 (CTX-M-14) = experiment: Potentiation of aztreonam, strain KP1005; format: cell-based
PAM1154/KPC-2 = experiment: Biapenem potentiation in PAM1154/KPC-2 (MexAB-OprM lacking); format: cell-based, Pseudomonas aeruginosa
Protocol: as §1

ec302 (TEM-10) [3] = experiment: Potentiation of tigemonam, strain ec302; format: cell-based
ec308 (SHV-5) [4] = experiment: Potentiation of tigemonam, strain ec308; format: cell-based; conditions: minimum BLI concentration inhibiting growth with 4 μg/mL tigemonam
OXA-48 = OXA-48 (Klebsiella pneumoniae, UniProt Q6XEC0); experiment: Inhibition of nitrocefin cleavage by purified OXA-48; format: biochemical; conditions: nitrocefin reporter substrate, purified enzyme; read-out: Ki (OXA-48, NCF)
Protocol: as §2

CTX-M-14 = CTX-M-14 (Escherichia coli, UniProt Q9L5C7); experiment: Inhibition of nitrocefin cleavage by purified CTX-M-14; format: biochemical; conditions: nitrocefin reporter substrate, purified enzyme; read-out: Ki (CTX-M-14, NCF)
Protocol: as §2

P99 = P99 (Enterobacter cloacae, UniProt P05364); experiment: Inhibition of nitrocefin cleavage by purified P99; format: biochemical; conditions: nitrocefin reporter substrate, purified enzyme; read-out: Ki (P99, NCF)
Protocol: as §2

CTX-M-14, sequence (Q9L5C7 entry or part of it): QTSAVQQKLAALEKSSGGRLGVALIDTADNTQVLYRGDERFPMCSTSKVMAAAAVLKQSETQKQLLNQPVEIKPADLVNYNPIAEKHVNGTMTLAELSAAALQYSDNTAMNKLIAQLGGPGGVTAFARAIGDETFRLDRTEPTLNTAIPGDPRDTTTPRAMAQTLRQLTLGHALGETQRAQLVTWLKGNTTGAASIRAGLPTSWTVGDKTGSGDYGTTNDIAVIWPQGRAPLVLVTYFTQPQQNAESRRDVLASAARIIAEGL
P99, sequence (P05364 21-381): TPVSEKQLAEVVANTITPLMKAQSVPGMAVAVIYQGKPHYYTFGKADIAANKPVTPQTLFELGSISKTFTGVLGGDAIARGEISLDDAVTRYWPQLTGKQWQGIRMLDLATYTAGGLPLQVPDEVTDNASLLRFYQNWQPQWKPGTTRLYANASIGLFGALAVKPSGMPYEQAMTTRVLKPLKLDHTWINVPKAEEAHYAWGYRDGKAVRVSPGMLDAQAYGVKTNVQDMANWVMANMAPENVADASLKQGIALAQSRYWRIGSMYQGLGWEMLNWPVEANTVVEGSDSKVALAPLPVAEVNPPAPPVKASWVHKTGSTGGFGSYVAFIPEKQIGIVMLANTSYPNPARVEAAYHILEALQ
OXA-48, sequence (Q6XEC0 23-265 limits assumed): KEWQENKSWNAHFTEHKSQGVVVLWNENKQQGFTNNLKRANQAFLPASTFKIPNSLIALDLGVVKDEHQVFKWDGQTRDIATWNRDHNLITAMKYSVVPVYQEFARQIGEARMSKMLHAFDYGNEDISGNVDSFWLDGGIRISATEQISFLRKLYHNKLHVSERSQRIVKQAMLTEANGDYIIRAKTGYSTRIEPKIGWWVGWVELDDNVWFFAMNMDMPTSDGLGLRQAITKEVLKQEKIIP
SHV-12, sequence (P0AD64 22-286 L31Q/G234S/E235K): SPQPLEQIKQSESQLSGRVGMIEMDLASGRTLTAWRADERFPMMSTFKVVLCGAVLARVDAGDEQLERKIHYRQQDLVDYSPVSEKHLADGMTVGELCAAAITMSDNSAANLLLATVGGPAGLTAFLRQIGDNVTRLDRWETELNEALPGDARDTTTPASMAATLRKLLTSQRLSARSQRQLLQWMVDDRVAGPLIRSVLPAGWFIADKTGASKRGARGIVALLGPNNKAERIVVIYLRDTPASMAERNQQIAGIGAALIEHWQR
CMY-2, sequence (Q48434 21-381, species assumed): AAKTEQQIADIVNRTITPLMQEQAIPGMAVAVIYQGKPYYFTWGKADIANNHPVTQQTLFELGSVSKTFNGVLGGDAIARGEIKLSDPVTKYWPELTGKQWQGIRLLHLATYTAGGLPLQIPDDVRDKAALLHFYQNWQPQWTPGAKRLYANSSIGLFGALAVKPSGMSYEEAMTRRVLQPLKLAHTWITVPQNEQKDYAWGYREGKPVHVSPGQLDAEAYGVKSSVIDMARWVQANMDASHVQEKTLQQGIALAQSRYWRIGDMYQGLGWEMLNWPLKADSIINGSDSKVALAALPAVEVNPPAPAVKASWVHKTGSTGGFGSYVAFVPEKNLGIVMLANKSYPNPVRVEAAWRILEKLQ

NC(=O)CC(=O)N[C@H]1Cc2cccc(C(=O)O)c2OB1O [Compound 16, (R)-3-(3-amino-3-oxopropanamido)-2-hydroxy-3,4-dihydro-2H-benzo[e][1,2]oxaborinine-8-carboxylic acid]
PAM1032/KPC-2 Biapenem MPC64 (PAM1032/KPC-2): X (key: X = Less than 10; Y = 10 to 40; Z Greater than 40)
TIG MPC4 CTX-M-15 KP1009 (KP1009 (CTX-M-15)): X (X = MIC of less than 1 μg/mL)
TIG MPC4 CMY-6 EC1010 (EC1010 (CMY-6)): X (key: X = MIC of less than 1 μg/mL; Y = MIC of 1 μg/mL to 10 μg/mL; Z = MIC of greater than 10 μg/mL)
Ki (SHV-12): < 1 nM
AZT MPC4 ECL1002 (ECL1002): X (X = MIC of less than 1 μg/mL)
Ki (CMY-2): 1 to 10 nM
AZT MPC4 K-2 KP1004 (KP1004 (K-2)): Y (Y = MIC of 1 μg/mL to 10 μg/mL)
AZT MPC4 SHV-5 ec308 (ec308 (SHV-5) [1]): X (X = MIC of less than 1 μg/mL)
AZT MPC4 TEM-10 ec302 (ec302 (TEM-10) [2]): X (key: X = MIC of less than 1 μg/mL; Y = MIC of 1 μg/mL to 10 μg/mL; Z = MIC of greater than 10 μg/mL)
AZT MPC4 CTX-M-14 KP1005 (KP1005 (CTX-M-14)): X (key: X = MIC of less than 1 μg/mL; Y = MIC of 1 μg/mL to 10 μg/mL; Z = MIC of greater than 10 μg/mL)
PAM1154/KPC-2 Biapenem MPC64 (PAM1154/KPC-2): X (key: X = Less than 10; Y = 10 to 40; Z Greater than 40)
TIG MPC4 TEM-10 ec302 (ec302 (TEM-10) [3]): Y (key: X = MIC of less than 1 μg/mL; Y = MIC of 1 μg/mL to 10 μg/mL; Z = MIC of greater than 10 μg/mL)
TIG MPC4 SHV-5 ec308 (ec308 (SHV-5) [4]): Y (Y = MIC of 1 μg/mL to 10 μg/mL)
Ki (OXA-48): 1 to 10 nM
Ki (CTX-M-14): 1 to 10 nM
Ki (P99): 1 to 10 nM
